Data reported in patent US7217821B2, “Photoprotective cosmetic compositions comprising para-aminobenzalmalonate-substituted s-triazine compounds” (L'Oreal, priority 2003, dated 2007).
Where “and” joins values, the source holds several entries; their conditions need not be identical. Equal values may be shown once.

What was measured:
[1] = Photostability of a film of oily solution under an Oriel sun simulator, quantified by HPLC; assay type: physicochemical; conditions: 5% by weight in Miglyol 812 oil; about 1 mg/cm^2 film; irradiated one hour, UVA=14.2 mW/cm^2, UVB=0.41 mW/cm^2; individual tests
Method: Compared photostabilities between a compound of the prior art and the compound according to the invention of Example 1:
The two products were dissolved at 5% by weight in Miglyol 812 oil. About 10 mg of oily solution are spread over 10 cm^2 onto the surface of a frosted-glass hollow disc; the amount is determined by weighing.
The films of oily solutions are irradiated for one hour using an Oriel sun simulator (UVA=14.2 mW/cm^2; UVB=0.41 mW/cm^2), and then extracted with 10 ml of ethanol containing 10% isopropanol and treated with ultrasound for 5 minutes. The quantifications of the products are performed by HPLC of the extracts.
HPLC conditions: column: UP5WOD-25QS, 250*4.6 mm, 5 μm, Interchrom; eluent: methanol (Comparative Example 1) and 96% methanol+4% water (Example 1); flow rate: 1 ml/minute; injected volume: 10 μl; detection: diode array; rt (minutes): 5.2 (Comparative Example 1) and 14.9 (Example 1).
The degrees of loss are determined by comparison of the amounts of product present in the irradiated samples and in the non-irradiated controls prepared simultaneously and treated in the same manner (average of 3 samples; S=surface area/mg solution): % loss=100*(S0-Sirr)/S0

[2] = UV absorption in ethanol; assay type: physicochemical

% disappearance [1] | UV E1% [2] | UV εmax [2] [M⁻¹ cm⁻¹] | UV λmax [2] [nm] | SMILES
11% and 10% and 9% | – | – | – | CC(C)COC(=O)C(=Cc1ccc(Nc2nc(Nc3ccc(C=C(C(=O)OCC(C)C)C(=O)OCC(C)C)cc3)nc(Nc3ccc(C=C(C(=O)OCC(C)C)C(=O)OCC(C)C)cc3)n2)cc1)C(=O)OCC(C)C [Compound (prior art), 2,4,6-tris(Diisobutyl 4′-aminobenzalmalonate)-s-triazine, reference compound]
3% and 5% and 4% | 956 | 110000 | 356 | CC(C)(C)COC(=O)C(=Cc1ccc(Nc2nc(Nc3ccc(C=C(C(=O)OCC(C)(C)C)C(=O)OCC(C)(C)C)cc3)nc(Nc3ccc(C=C(C(=O)OCC(C)(C)C)C(=O)OCC(C)(C)C)cc3)n2)cc1)C(=O)OCC(C)(C)C [Example 1, 2,4,6-tris(dineopentyl 4′-aminobenzalmalonate)-s-triazine]
– | 922 | 111000 | 353 | CC(C)CC(C)OC(=O)C(=Cc1ccc(Nc2nc(Nc3ccc(C=C(C(=O)OC(C)CC(C)C)C(=O)OC(C)CC(C)C)cc3)nc(Nc3ccc(C=C(C(=O)OC(C)CC(C)C)C(=O)OC(C)CC(C)C)cc3)n2)cc1)C(=O)OC(C)CC(C)C (centres unmarked) [Example 2, 2,4,6-tris(bis(1,3-dimethylbutyl) 4′-aminobenzalmalonate)-s-triazine]
